One molecule from US20040028749A1, “Treating inflammation and associated complications” (priority 2000, published 2004) can be followed below.

One test addresses T1, EPO (Sus scrofa, UniProt P80550).
T1 construct: from tissue; host or cells: porcine whole blood (leukocytes/eosinophils)
T1 sequence (P80550 143-704): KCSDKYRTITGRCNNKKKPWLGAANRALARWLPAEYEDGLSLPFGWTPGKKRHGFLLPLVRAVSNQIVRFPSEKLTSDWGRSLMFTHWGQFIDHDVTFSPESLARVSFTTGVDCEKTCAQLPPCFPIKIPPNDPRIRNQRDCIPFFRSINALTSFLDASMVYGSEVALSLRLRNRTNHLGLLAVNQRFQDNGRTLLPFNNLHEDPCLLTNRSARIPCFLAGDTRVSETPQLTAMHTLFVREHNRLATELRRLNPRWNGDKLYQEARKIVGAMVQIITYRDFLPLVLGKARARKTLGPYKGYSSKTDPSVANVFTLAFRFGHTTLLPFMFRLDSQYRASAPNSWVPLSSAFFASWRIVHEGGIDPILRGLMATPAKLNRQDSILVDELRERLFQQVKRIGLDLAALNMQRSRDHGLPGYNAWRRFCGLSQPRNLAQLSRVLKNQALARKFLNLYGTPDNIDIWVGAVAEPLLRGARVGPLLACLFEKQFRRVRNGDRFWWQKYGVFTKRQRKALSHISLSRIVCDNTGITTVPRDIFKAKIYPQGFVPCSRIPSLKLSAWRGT
The test can be described thus: Stopped-flow kinetics of NO with EPO compounds I and II. It counts as biochemical. The settings on record: 10 μM H2O2. The procedure: […] EPO was isolated from porcine whole blood obtained fresh at the slaughterhouse as described by Jorg et al. (1982) Biochim Biophys Acta 701:185-191. EPO was assayed by guaiacol oxidation (see Klebanoff et al. (1984) Methods Enzymol. 105:399-403). […] The concentration of the MPO dimer was calculated as half the indicated concentration of heme-like chromophore. Bovine LPO was obtained from Worthington Biochemistry Corporation (Lakewood, N.J.) and used without further purification.
Stopped-flow spectroscopy was used to investigate how NO interacts with intermediate forms of EPO and LPO during steady-state catalysis. […] The time courses for the formation and decay of compound II of both EPO and LPO in the absence of NO were examined by monitoring the absorbance change at 445 nm for EPO and at 430 nm for LPO. For both enzymes, the changes in absorbance that took place in the first 2 seconds of the reactions are shown and are attributed to the buildup of compound II. […] The subsequent decreases in absorbance at 455 and 430 nm observed for both enzymes were also fit to a single-exponential function with a rate constant of 0.005 s^−1 for EPO and 0.0005 s^−1 for LPO. […]
The addition of NO to reaction mixtures of EPO or LPO results in dramatic effects on the rates of compound II buildup, duration, and decay, as assessed by stopped-flow spectroscopy. […]

The test system of a further test is tracheal rings. Description: NO-mediated relaxation of preconstricted tracheal rings. Details: species or system rat. Particulars: absence of peroxidases. An excerpt:
Normal rats were sacrificed and their trachea removed. Under the dissecting microscope, each trachea was freed of adventitia and fat tissue. A cylindrical airway segment of 3 mm length was isolated from the midtrachea of each animal and placed in a modified Krebs-Henseleit (KH) solution of the following composition (mM): NaCl, 118.2; NaHCO3, […], 4.6; KH2PO4, 1.2; MgSO4, 1.2; CaCl2 and dextrose, […], with a pH adjusted to 7.4. The solution was continuously aerated with 5% […] balanced with O2. […] Generated forces were continuously monitored and recorded on a rectilinear chart recorder. […]
A cumulative concentration-response curve to bethanecol (3×10^−8 to 10^−3 M) was obtained for each cylinder. The concentration of bethanecol that elicited 50-75% of maximal response (ED 50-75) was determined. […] The percent relaxation from the precontracted state was calculated for each cylinder. The percent relaxation in response to EFS was calculated from the reduction in tension (in grams) in relation to baseline tension in the precontracted state, each tracheal segment serving as its own control (before and after EFS exposure). […]
The effect of peroxidases on the concentration dependence of NO-mediated relaxation of preconstricted tracheal rings was quantified. […]

On to `[N]=O` [NO, nitric oxide], for which the “enhancement of rate of EPO compound II accumulation” value on EPO was approximately 25 fold. Besides, the “NO concentration at which relaxation reached a maximum” value in the test with tracheal rings was approximately 4 µM.
